# Results taken from patent publication US11572590B2, “Methods for evaluating tumor cell spheroids using 3D microfluidic cell culture device” (Dana-Farber Cancer Institute, Inc., priority 2017, dated 2023).
# Like-named read-outs stand apart in the source and are kept apart here.
# How the values were obtained:
# Assay in all cases: SelectScreen Kinase Profiling, single point inhibition and IC50 for off-target kinases
# Type in all cases: biochemical
# [1] = biological target: off-target kinases (Homo sapiens, UniProt P07947); conditions: YES1, ATP Km app, ZLYTE
# [2] = biological target: off-target kinases (Homo sapiens, UniProt P48730); conditions: CSNK1D (CK1 delta), ZLYTE, ATP Km app
# [3] = biological target: off-target kinases (Homo sapiens, UniProt P06213); conditions: INSR, ZLYTE, ATP Km app
# [4] = biological target: T1, off-target kinases (Homo sapiens, UniProt O95835); conditions: LATS1, LanthaScreen Binding
# T1 sequence (O95835 1-1130): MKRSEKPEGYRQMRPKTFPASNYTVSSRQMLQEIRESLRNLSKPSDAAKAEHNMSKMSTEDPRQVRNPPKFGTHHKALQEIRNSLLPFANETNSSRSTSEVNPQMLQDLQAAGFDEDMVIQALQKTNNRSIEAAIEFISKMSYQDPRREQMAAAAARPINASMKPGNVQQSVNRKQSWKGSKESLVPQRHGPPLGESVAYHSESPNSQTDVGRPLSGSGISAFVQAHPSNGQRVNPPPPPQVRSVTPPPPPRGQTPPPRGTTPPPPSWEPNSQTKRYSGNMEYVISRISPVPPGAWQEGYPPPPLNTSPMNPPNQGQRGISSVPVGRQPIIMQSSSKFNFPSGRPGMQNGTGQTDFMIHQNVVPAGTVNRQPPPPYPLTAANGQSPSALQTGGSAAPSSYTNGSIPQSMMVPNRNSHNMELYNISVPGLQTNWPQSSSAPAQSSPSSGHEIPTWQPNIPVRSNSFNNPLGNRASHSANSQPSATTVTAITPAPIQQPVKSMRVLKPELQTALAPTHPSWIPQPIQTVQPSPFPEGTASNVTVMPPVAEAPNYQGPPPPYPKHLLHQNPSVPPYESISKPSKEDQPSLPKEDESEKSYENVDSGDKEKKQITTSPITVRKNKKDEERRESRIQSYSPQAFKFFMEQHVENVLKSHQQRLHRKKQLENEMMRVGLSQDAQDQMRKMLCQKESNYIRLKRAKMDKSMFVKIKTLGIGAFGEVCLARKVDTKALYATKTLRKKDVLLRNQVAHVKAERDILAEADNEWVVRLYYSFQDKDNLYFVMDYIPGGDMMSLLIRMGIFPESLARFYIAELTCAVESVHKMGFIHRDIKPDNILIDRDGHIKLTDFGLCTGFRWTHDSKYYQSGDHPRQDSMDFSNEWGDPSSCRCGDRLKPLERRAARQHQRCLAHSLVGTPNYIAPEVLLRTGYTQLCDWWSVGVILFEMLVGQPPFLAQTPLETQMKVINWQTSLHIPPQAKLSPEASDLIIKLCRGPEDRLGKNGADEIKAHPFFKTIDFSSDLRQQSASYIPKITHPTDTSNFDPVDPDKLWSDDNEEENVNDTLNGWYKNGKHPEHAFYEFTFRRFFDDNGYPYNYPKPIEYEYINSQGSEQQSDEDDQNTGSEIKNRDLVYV
# [5] = biological target: off-target kinases (Homo sapiens, UniProt P48736); conditions: PIK3CG (p110 gamma), Adapta, ATP Km app
# [6] = biological target: off-target kinases (Homo sapiens, UniProt P36888, D835Y); conditions: FLT3 D835Y, ATP Km app, ZLYTE
# [7] = biological target: off-target kinases (Homo sapiens, UniProt P14616); conditions: INSRR (IRR), ZLYTE, ATP Km app
# Sequence of off-target kinases (Homo sapiens, UniProt P14616) (P14616 27-1297): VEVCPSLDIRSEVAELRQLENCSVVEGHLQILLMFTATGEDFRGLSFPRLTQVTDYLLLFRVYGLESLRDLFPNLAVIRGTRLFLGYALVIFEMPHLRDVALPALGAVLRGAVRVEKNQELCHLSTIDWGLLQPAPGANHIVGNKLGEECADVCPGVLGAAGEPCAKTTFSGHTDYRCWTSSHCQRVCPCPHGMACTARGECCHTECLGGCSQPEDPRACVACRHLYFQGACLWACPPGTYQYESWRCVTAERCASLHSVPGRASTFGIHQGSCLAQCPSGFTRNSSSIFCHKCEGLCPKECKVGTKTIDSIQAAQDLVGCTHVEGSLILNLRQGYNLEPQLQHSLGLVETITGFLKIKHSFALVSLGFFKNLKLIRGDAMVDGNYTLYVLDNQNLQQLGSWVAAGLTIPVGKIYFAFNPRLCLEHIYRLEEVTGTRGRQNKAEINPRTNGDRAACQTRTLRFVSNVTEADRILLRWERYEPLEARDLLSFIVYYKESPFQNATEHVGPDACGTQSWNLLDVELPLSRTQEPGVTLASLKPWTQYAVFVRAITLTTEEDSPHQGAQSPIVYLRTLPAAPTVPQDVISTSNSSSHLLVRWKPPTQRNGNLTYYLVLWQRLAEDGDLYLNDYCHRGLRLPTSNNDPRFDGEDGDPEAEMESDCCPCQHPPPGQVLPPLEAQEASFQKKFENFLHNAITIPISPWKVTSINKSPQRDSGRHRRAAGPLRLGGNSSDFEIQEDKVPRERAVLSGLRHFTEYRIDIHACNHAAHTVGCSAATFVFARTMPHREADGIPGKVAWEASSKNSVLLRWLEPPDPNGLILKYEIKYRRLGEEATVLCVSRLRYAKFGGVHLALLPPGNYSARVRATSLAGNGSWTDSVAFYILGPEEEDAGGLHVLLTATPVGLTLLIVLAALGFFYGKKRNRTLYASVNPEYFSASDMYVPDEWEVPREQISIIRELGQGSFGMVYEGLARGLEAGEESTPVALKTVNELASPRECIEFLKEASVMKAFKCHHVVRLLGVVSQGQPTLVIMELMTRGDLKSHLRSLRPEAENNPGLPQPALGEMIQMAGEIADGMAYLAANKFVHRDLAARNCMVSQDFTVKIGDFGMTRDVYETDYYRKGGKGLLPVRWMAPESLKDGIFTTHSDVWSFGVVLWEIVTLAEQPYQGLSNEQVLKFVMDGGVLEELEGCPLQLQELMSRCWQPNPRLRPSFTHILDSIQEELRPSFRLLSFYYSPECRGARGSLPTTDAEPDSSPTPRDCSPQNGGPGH
# Sequence of off-target kinases (Homo sapiens, UniProt P07947) (P07947 whole entry): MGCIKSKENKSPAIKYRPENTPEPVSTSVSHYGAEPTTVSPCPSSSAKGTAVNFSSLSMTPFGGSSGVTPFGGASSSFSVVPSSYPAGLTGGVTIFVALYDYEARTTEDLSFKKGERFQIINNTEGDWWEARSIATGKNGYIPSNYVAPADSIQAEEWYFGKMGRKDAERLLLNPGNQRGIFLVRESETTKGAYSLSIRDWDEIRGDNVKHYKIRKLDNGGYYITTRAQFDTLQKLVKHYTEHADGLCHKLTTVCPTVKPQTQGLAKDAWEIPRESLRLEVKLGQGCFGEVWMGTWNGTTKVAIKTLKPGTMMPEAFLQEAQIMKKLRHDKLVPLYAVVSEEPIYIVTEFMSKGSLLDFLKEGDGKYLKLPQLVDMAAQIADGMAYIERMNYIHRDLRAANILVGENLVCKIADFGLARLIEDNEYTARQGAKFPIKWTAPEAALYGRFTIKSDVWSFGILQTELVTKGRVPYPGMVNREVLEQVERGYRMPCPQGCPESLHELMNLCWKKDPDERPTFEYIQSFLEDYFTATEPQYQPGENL
# Sequence of off-target kinases (Homo sapiens, UniProt P48730) (P48730 whole entry): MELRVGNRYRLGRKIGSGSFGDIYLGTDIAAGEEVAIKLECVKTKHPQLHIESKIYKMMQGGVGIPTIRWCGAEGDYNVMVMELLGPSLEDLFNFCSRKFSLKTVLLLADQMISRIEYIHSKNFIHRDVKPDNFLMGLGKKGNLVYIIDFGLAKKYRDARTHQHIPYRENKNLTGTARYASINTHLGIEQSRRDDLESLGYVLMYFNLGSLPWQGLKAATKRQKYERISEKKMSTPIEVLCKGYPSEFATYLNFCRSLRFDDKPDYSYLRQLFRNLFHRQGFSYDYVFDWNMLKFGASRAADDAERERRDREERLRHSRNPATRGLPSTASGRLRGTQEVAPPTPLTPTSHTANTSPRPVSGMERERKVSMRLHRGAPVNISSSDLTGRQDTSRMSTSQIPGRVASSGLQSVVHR
# Sequence of off-target kinases (Homo sapiens, UniProt P06213) (P06213 28-1382): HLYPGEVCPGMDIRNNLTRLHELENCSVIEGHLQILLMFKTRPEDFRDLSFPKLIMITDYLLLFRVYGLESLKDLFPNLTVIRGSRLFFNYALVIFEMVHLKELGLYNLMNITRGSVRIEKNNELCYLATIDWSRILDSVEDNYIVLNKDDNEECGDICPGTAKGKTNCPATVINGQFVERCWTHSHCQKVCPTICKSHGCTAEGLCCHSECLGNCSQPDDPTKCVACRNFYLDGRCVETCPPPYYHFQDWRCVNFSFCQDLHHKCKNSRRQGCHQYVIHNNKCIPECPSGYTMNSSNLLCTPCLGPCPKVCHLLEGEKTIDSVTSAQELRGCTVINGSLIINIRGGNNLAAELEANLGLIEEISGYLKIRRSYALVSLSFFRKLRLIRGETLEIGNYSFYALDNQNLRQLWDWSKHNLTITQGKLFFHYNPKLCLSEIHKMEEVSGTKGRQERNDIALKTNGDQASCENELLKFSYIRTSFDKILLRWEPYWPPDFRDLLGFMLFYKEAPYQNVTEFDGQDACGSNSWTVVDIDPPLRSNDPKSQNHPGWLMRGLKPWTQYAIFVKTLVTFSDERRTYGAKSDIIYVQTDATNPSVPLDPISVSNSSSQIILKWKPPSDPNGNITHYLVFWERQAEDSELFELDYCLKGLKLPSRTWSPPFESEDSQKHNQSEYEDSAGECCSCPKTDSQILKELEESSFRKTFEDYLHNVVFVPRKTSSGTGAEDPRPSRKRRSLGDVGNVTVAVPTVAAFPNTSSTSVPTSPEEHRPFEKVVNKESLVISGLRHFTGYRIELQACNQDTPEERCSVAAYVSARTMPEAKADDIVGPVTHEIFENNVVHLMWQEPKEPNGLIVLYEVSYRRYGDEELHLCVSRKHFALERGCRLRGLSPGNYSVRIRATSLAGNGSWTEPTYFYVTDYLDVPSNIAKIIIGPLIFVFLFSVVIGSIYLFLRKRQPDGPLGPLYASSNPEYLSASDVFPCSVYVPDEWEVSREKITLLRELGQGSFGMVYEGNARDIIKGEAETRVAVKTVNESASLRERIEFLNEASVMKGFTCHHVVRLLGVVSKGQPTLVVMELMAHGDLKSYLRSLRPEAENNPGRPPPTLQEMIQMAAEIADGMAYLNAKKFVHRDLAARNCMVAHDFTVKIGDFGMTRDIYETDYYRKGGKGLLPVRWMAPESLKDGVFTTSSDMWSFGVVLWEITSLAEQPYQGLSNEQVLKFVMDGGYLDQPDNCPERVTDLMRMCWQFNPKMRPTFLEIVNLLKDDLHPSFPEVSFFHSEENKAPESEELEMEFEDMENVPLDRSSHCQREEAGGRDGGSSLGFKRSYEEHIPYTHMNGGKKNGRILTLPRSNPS
# Sequence of off-target kinases (Homo sapiens, UniProt P48736) (P48736 whole entry): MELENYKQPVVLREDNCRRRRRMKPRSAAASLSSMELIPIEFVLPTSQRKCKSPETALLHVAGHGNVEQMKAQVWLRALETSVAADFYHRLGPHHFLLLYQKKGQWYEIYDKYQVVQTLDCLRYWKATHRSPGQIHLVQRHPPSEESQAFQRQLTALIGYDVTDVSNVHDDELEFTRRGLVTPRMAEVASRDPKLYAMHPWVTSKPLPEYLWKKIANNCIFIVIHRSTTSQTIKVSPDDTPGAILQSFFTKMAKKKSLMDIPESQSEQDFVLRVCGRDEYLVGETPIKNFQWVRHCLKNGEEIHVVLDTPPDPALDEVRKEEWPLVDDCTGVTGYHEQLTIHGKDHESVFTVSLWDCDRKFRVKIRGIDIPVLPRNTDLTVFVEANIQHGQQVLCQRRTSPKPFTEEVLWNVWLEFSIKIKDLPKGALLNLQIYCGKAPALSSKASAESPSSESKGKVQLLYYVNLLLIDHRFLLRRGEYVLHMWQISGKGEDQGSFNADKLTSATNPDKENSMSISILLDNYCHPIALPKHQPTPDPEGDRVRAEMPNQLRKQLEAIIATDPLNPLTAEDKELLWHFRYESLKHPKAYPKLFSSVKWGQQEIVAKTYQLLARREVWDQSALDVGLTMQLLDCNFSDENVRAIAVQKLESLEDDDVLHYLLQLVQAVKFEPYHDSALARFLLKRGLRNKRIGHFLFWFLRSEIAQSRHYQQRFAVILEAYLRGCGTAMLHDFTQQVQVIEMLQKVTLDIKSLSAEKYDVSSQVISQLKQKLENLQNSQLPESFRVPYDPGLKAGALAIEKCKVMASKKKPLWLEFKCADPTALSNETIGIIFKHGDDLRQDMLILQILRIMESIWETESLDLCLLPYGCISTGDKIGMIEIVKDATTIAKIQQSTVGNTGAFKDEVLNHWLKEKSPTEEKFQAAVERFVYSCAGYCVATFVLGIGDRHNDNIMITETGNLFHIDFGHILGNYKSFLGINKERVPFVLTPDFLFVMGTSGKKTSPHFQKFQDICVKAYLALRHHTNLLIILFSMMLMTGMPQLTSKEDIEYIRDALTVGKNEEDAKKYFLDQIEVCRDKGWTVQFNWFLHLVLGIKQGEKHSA
structure (smiles),measurement,setting,value
"N#Cc1cc(-c2ncnc(Nc3ccc(N4CCN(C5COC5)CC4)cc3)n2)ccc1OC1CCOCC1 [Compound 1, 5-(4-((4-(4-(oxetan-3-yl)piperazin-1-yl)phenyl)amino)-1,3,5-triazin-2-yl)-2-((tetrahydro-2H-pyran-4-yl)oxy)benzonitrile]",inhibition,[1]; read-out: % Inhibition 1,55%
same,inhibition,[1]; read-out: % Inhibition 2,51%
same,inhibition,[1]; read-out: % Inhibition Avg,53%
same,inhibition,[2]; read-out: % Inhibition 1,-1%
same,inhibition,[2]; read-out: % Inhibition 2,-5%
same,inhibition,[2]; read-out: % Inhibition Avg,-3%
same,inhibition,[3]; read-out: % Inhibition 1,-1%
same,inhibition,[3]; read-out: % Inhibition 2,1%
same,inhibition,[3]; read-out: % Inhibition Avg,0%
same,inhibition,[4]; read-out: % Inhibition 1,-5%
same,inhibition,[4]; read-out: % Inhibition 2,1%
same,inhibition,[4]; read-out: % Inhibition Avg,-2%
same,inhibition,[5]; read-out: % Inhibition 1,11%
same,inhibition,[5]; read-out: % Inhibition 2,8%
same,inhibition,[5]; read-out: % Inhibition Avg,9%
same,inhibition,[6]; read-out: % Inhibition 1,83%
same,inhibition,[6]; read-out: % Inhibition 2,81%
same,inhibition,[6]; read-out: % Inhibition Avg,82%
same,inhibition,[7]; read-out: % Inhibition 1,5%
same,inhibition,[7]; read-out: % Inhibition 2,4%
same,inhibition,[7]; read-out: % Inhibition Avg,4%
